Laboratory results taken from ChEMBL document CHEMBL3271945, “Azabicyclo chemistry. 6. An investigation of one of the chemical parameters for analgetic activity. Synthesis of 2-methyl-2-azabicyclo[3.3.1]non-6-ene and -non-7-ene” (J Med Chem, 1977).
Calls of active or inactive are those of the source. The calls are words filed in the database; no cut-off is given here.

Assays:
Mus musculus [1] = assay: Analgetic activity in sc dosed mouse by hot-plate method; format: functional
Mus musculus [2] = assay: Analgetic activity in mouse at 100 mg/kg, sc by hot-plate method; format: functional, organism-based; parameters: dose 100 mg/kg
Mus musculus [3] = assay: Analgetic activity in mouse at 50 mg/kg, sc by hot-plate method; format: functional, organism-based; parameters: dose 50 mg/kg
Mus musculus [4] = assay: Toxicity in mouse at 100 mg/kg, sc; format: organism-based; parameters: dose 100 mg/kg, route subcutaneous; details: in vivo

Row | SMILES | ED50 (Mus musculus [1]) [mg/kg] | other results
1 | CN1CC[C@@]2(C)C[C@H]1Cc1ccccc12 | 11 | 
2 | CN1CCC2CC(=O)CC1C2 (stereo not drawn) | 40 | 
3 | CN1CC[C@H]2C[C@H]1Cc1ccc(O)cc12 | 4.5 | 
4 | CN1CC[C@@H]2CC=C[C@@H]1C2 |  | Activity (Mus musculus [2]): inactive
5 | CN1CC[C@]23c4c5ccc(O)c4O[C@H]2[C@@H](O)C=C[C@H]3[C@H]1C5 [MORPHINE] | 1.2 | 
6 | CN1CCC2CC1C[C@@H](O)C2 (stereo partly drawn) |  | Activity (Mus musculus [2]): inactive
7 | CN1CC[C@@H]2C=CC[C@@H]1C2 |  | Activity (Mus musculus [3]): inactive; Activity (Mus musculus [4]): Toxic
